Where “and” joins values, the source holds several entries; their conditions need not be identical. Equal values may be shown once.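 Protocol summary: plate cells (96-well), add compound at 5 concentrations, incubate 48 h, interpolate endpoints linearly. The concentration for 50% growth inhibition is given as GI50. TGI marks complete inhibition of growth.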
Key:
Experiment in all cases: growth of human tumour cells (NCI), 48 h
RXF 393 renal = tested on: RXF 393 renal
HOP-62 NSCLC = tested on: HOP-62 NSCLC
UACC-62 melanoma = tested on: UACC-62 melanoma
SW-620 colon = tested on: SW-620 colon
CAKI-1 renal = tested on: CAKI-1 renal
A549 NSCLC = tested on: A549 NSCLC
CCRF-CEM leukemia = tested on: CCRF-CEM leukemia
NCI-H460 lung = tested on: NCI-H460 lung
SK-MEL-28 melanoma = tested on: SK-MEL-28 melanoma
NCI-H226 lung = tested on: NCI-H226 lung

Compound	TGI (RXF 393 renal)	TGI (HOP-62 NSCLC)	TGI (UACC-62 melanoma)	TGI (SW-620 colon)	TGI (CAKI-1 renal)	TGI (A549 NSCLC)	TGI (CCRF-CEM leukemia)	TGI (NCI-H460 lung)	TGI (SK-MEL-28 melanoma)	TGI (NCI-H226 lung)	GI50 (RXF 393 renal)	GI50 (HOP-62 NSCLC)	GI50 (UACC-62 melanoma)	GI50 (SW-620 colon)	GI50 (CAKI-1 renal)	GI50 (A549 NSCLC)	GI50 (CCRF-CEM leukemia)	GI50 (NCI-H460 lung) [µM]	GI50 (SK-MEL-28 melanoma)	GI50 (NCI-H226 lung)
CCCCC[C@@H]1CCCC2NC(CCCCCO[Si](c3ccccc3)(c3ccccc3)C(C)(C)C)CCC21 (some centres undefined)	25.4 µM	36.8 µM	34.9 µM	31.6 µM	29 µM	33.9 µM	26.7 µM	31.7 µM	32.2 µM	36.6 µM										
CCN1C(=O)N(CC)C2C1NN=c1s/c(=C3\C(=O)Nc4ccccc43)c(=O)n12 (centres undefined)	1.05 µM	25.8 µM	23.9 µM	> 100 µM	34.8 µM	> 100 µM	27.1 µM	> 100 µM	> 100 µM	55.5 µM	0.279 µM	0.734 µM	0.371 µM	0.409 µM	0.404 µM	0.812 µM	0.385 µM	0.397	0.891 µM	0.544 µM
C[C@H]1C[C@@H](n2c(Nc3ccc(OC(F)(F)F)cc3)nc3cc(CCC(=O)O)ccc32)CC(C)(C)C1	25.2 µM	39.4 µM	17.7 µM	32.5 µM	28.8 µM	30.2 µM	44.5 µM	24.7 µM	22.5 µM	42.4 µM	11.3 µM	20.6 µM	4.91 µM	15.3 µM	15.4 µM	11.1 µM	16.2 µM	9.74	8.26 µM	17.8 µM
O=C1c2ccccc2C(=O)c2c1ccc1conc21	5.64 µM	9.11 µM	5.63 µM	4.36 µM	8.93 µM	11.2 µM	71.1 µM	12.2 µM	7.94 µM	14.9 µM										
CC(=O)CC[N+](C)(C)C	20.1 µM	> 100 µM	52.4 µM	27.8 µM	3.83 µM	> 94.6 µM	13.7 µM	> 90 µM	50 µM	88.2 µM										
COc1ccc(-c2cn(C)c3c2-n2cccc2C3=O)cc1O	99.4 µM	29.3 µM	12.2 µM	> 100 µM	7.77 µM	54.1 µM	25.4 µM	20 µM	33.8 µM	39.7 µM	42.3 µM	5.93 µM	3.27 µM	6.9 µM	2.09 µM	18.1 µM	3.66 µM	3.06	11.4 µM	6.33 µM
COc1ccc2nc3cc(Cl)ccc3c(Nc3ccccc3-c3ccccc3Nc3c4ccc(Cl)cc4nc4ccc(OC)cc34)c2c1	> 53.5 µM	> 94.9 µM	> 66.3 µM	> 68.2 µM	> 88.1 µM	> 100 µM	> 49.2 µM	98.9 µM	> 86.6 µM	> 73.4 µM										
CCc1nc(N)nc(N)c1C#CC(C)c1ccc(-c2ccncc2)cc1Cl (centres undefined)	2.12 µM and 7.44 µM	1.92 µM and 13.9 µM	4.39 µM and 10.9 µM	6.58 µM and 14.9 µM	5.07 µM	2 µM and 11.4 µM	5.48 µM and 14.5 µM		4.52 µM and 17 µM	6.56 µM and 28.3 µM	0.141 µM and 0.312 µM	0.0266 µM and 0.0528 µM	< 0.005 µM and 0.0186 µM	< 0.005 µM	0.0259 µM	< 0.005 µM	0.0143 µM and 0.0367 µM	< 0.005	0.0645 µM and 0.375 µM	0.264 µM and 0.86 µM
O=C1/C(=C/c2ccc(F)cc2)COc2ccc(O)c(O)c21	3.64 µM	17.8 µM	6.98 µM	11.3 µM	5.61 µM	> 100 µM	1.46 µM	> 100 µM	5.91 µM	7.08 µM	1.85 µM	3.43 µM	2.1 µM	2.03 µM	1.65 µM	3.32 µM	0.313 µM	3.33	2.27 µM	2.47 µM
O=C(CCN1CCCC1)Nc1ccc2c(Nc3ccc(F)cc3)c3ccccc3nc2c1	2.64 µM	3.7 µM	3.1 µM	2.29 µM	2.6 µM	3.62 µM	11.1 µM	1.38 µM	3.24 µM	3.21 µM	1.23 µM	0.864 µM	1.55 µM	0.64 µM	1.26 µM	0.424 µM	0.274 µM	0.211	1.7 µM	1.41 µM
O=[N+]([O-])c1ccccc1/C=N\NC(=S)N/N=C/c1ccccc1[N+](=O)[O-]	> 100 µM	> 100 µM	> 100 µM	> 100 µM	> 100 µM	> 100 µM	> 100 µM	> 100 µM	> 100 µM	> 100 µM	11.6 µM	5.57 µM	4.52 µM	4.29 µM	3.46 µM	8.92 µM	4.19 µM	3.64	8.44 µM	75.4 µM
O=C(O)c1cccc([As]=[As]c2cccc(C(=O)O)c2)c1 (centres undefined)	81.8 µM	> 100 µM	> 100 µM	> 100 µM	37.1 µM	> 100 µM	79 µM	> 100 µM	> 100 µM	> 100 µM										
NC(CSC(c1ccccc1)(c1ccccc1)c1ccccc1)C(=O)O (centres undefined)	22.8 µM and > 100 µM	63 µM and > 100 µM	42.9 µM and > 100 µM	107 µM and > 100 µM	51.6 µM and > 100 µM	82.1 µM and > 100 µM	19.4 µM and > 100 µM	21 µM and 15.8 µM	110 µM and > 100 µM	90.1 µM and > 100 µM	0.708 µM and 0.454 µM	19.3 µM and 4.5 µM	2.01 µM and 3.98 µM	1.64 µM and 0.968 µM	15.2 µM and 7.17 µM	4.86 µM and 2.75 µM	1.59 µM and 0.942 µM	2.07	12.2 µM and 4.46 µM	22.1 µM
O=C(CSSCC(=O)c1ccc(Cl)cc1)c1ccc(Cl)cc1	14.7 µM	21.7 µM	14.5 µM	23.6 µM	28.6 µM	43.2 µM	> 100 µM	26.9 µM	22.5 µM	30.7 µM	4.49 µM	5.03 µM	3.1 µM	4.13 µM	4.99 µM	10.4 µM	3.39 µM	3.35	5.83 µM	11.7 µM

— PubChem BioAssay (NCI)
